# According to patent US8852657B2, “Chromones as therapeutic agents” (Unigen, Inc., priority 2007, dated 2014):
# “Also recorded” adds a separate entry of the source.
# Experiments:
# Assay type in all cases: in vivo, mouse
# [1] = test system: C57BL/6J mice fed high fat diet; test: Intraperitoneal glucose tolerance test, high-fat diet induced model (UP394/UP396); settings: day 18; times 60, 90 and 120 minutes; p<0.05; GW1929 5 mg/kg, UP396 100 mg/kg intraperitoneally
# Text: A high-fat diet induced animal model was developed and used for evaluation of potential therapeutic effects of chromone extracts. The C57BL/6J is a clinically relevant animal model that can be used in studies on metabolic disorders, pathophysiology of impaired glucose tolerance and for development of novel therapeutic agents (Ahren et al. (2004) Diabetes 53 (Supplement 3):S215-S219; Laakso et al. (2004) Diabetes Care 27:2253-2259; Kahn et al. (2004) Diabetes 53:3274-3285; Scheurink et al. (1998) European J Endo. 139:461-467; Yuan et al. (2002) Diabetes 51:1851-1858; Reitman et al. (2005) Endocrinology 145:3258-3264; Vlassara et al. (2005) Diabetes 54:2314-2319; Cawthome et al. (2002) Molecular and Cellular Proteomics 1:509-516). Methodology of model induction was first explained by Surwit et al. in 1988 (Diabetes, 37:1163-1167). […] Blood glucose, cholesterol, and triglyceride were monitored every week for 12 weeks as described previously. […]
# An intraperitoneal glucose tolerance test was conducted using the C57BL/6J mice as described in Example 12 at a dose of 2 g/kg on day 18 of treatment with intraperitoneal administration of GW1929 (5 mg/kg), UP394 (100 mg/kg), UP396 (100 mg/kg) and vehicle. […] Blood glucose levels were measured at time 0, 30, 60, 90, and 120 minutes. […]
# [2] = test system: C57BL/6J mice fed high fat diet; test: Plasma insulin level (ELISA), high-fat diet induced model; settings: day 14 of treatment after 8 weeks high-fat diet; P<0.05; GW1929 5 mg/kg, UP394 and UP396 100 mg/kg
# Text: A high-fat diet induced animal model was developed and used for evaluation of potential therapeutic effects of chromone extracts. The C57BL/6J is a clinically relevant animal model that can be used in studies on metabolic disorders, pathophysiology of impaired glucose tolerance and for development of novel therapeutic agents (Ahren et al. (2004) Diabetes 53 (Supplement 3):S215-S219; Laakso et al. (2004) Diabetes Care 27:2253-2259; Kahn et al. (2004) Diabetes 53:3274-3285; Scheurink et al. (1998) European J Endo. 139:461-467; Yuan et al. (2002) Diabetes 51:1851-1858; Reitman et al. (2005) Endocrinology 145:3258-3264; Vlassara et al. (2005) Diabetes 54:2314-2319; Cawthome et al. (2002) Molecular and Cellular Proteomics 1:509-516). Methodology of model induction was first explained by Surwit et al. in 1988 (Diabetes, 37:1163-1167). In brief, impaired glucose tolerance and metabolic disorder like symptoms were inflicted successfully in C57BL/6J mice when fed with high fat diets for 8 weeks. Male C57BL/6J mice were purchased from Jackson Laboratories (Bar Harbor, Me.) at age of 6 weeks. One week after acclimation period, animals were divided into groups (n=5 or 6) and provided with high fat (45% kcal) rodent pellet (Research diets, Inc., New Brunswick, N.J.) and water ad libitum for 12 weeks except at times of glucose and insulin tolerance tests at which feed was withheld for three hours. Animals were maintained in a temperature controlled room (22.2° C.) on a 12 hour light-dark cycle. Blood glucose, cholesterol, and triglyceride were monitored every week for 12 weeks as described previously. Body weight measurement was taken once a week for 12 weeks.
# Once induction of the metabolic disorders was confirmed by weekly monitoring of selected parameters (glucose, triglyceride and cholesterol) i.e. on the 8th week, daily intraperitoneal treatment was initiated and maintained for 4 weeks. […]
# The plasma insulin levels were measured with an ELISA kit for insulin (Crystal Chem—Chicago, Ill.). […]
# [3] = test system: db/db mice; test: Weekly fasting glucose levels in db/db mice; settings: GW1929 5 mg/kg, N931 375 mg/kg
# Description: Fasting glucose levels of male db/db mice (8 mice in each group) treated with GW1929 (5 mg/kg), N931 (375 mg/kg) and vehicle were measured weekly. Animals were provided with T2018 rodent diet ad libitum except when fasting. Animals were fasted overnight before measurements were taken.
# [4] = test system: high fat diet induced C57BL/6J mice; test: Fasting triglyceride, UP780 dose-range study; settings: after 7 weeks of daily oral treatment; GW1929 5 mg/kg
# Description: (§1) Once an induction of the disease on animals after 8 weeks of high fat diets was confirmed by monitoring of selected parameters, daily oral treatment was initiated. On each day, the test articles and the positive control GW1929 (Tocris Bioscience, Ellisville, Mo., Batch #2A/58705) were dissolved in 0.5% methylcellulose (Sigma, St. Louise Mo., Lot#116H0857) and delivered at an oral dose of 100, 200 and 400 mg/kg of UP780 (Lot # L1806QMAW-01); 400 mg/kg of Qmatrix® Aloe vera gel powder (QM400, Lot# G6319103-L3) as well as 5 mg/kg of GW1929. As GW1929 was not completely solublized in methylcellulose, it was first dissolved in DMSO (Sigma, St. Louis, Mo., Batch#064K0067). The final concentration of test compounds, including the vehicle, was then adjusted to contain 5% DMSO before drug administration. The carrier vehicle treated animals received 0.5% methylcellulose only. No detectable sign of irritation was observed after each drug or vehicle administration.
# (§2) As described on Example 12, male C57BL/6J mice were purchased from Jackson Laboratories (Bar Harbor, Me.) at 6 weeks of age. […]
# Fasting blood glucose, total cholesterol and triglyceride levels were measured using 15-20 μl of blood obtained from tail vein. […]
# [5] = Body weight, UP780 dose-range study; settings: GW1929 5 mg/kg, Qmatrix 400 mg/kg, UP780 100, 200 and 400 mg/kg; weekly
# Description: as §1, §2
# Three or four male C57BL/6J mice were housed in a mouse cage that had sections for feed and water. Feed intake was determined daily by measuring the difference between previously weighed high fat pellets value and what was left on the given day. […]
structure (smiles),measurement,setting,value
"CN(CCOc1ccc(C[C@H](Nc2ccccc2C(=O)c2ccccc2)C(=O)O)cc1)c1ccccn1 [GW1929, N-(2-Benzoylphenyl)-O-[2-(methyl-2-pyridinylamino)ethyl]-L-tyrosine]",glucose utilization in intraperitoneal glucose tolerance test compared to vehicle,[1],Significant glucose utilization
same,plasma insulin levels compared to vehicle,[2],decreased the insulin level significantly; also recorded: Significant decreases in plasma insulin levels
same,course of fasting glucose level during 10-week treatment,[3]; starting from week 5,maintain the glucose levels at the baseline level
same,fasting blood glucose levels compared to vehicle,"[3]; weeks 6, 7, 9 and 10, P<0.05",significantly lower
same,percent reduction of fasting triglyceride level to vehicle,[4],22.7%
same,body weight gain difference between groups,[5],no significant body weight gain or feed consumption differences; also recorded: No statistically significant body weight gain difference
